The IC50 is the point on the concentration scale where inhibition reaches its midpoint.

Results on 26 compounds are retold here after ChEMBL document CHEMBL5346921, “Discovery of novel benzamide derivatives bearing benzamidophenyl and phenylacetamidophenyl scaffolds as potential antitumor agents via targeting PARP-1” (Eur J Med Chem, 2023).

One data set deals with SW480. Briefly: cells. Conditions: Homo sapiens, SW480, 48 h.
A short description of data set [1]: Selectivity index, ratio of IC50 for cytotoxicity against human NCM460 cells to IC50 for antiproliferative activity against human HCT-116 cells. The data set is classed as toxicity, cell-based. Particulars: NCM460 cells and HCT-116 cells, read-out: Ratio IC50.
The nature of data set [2]: Cytotoxicity against human NCM460 cells assessed as reduction in cell viability incubated for 48 hrs by MTT assay. Format: toxicity, cell-based.
A further data set deals with DLD-1. Briefly: Antiproliferative activity against human DLD-1 cells assessed as reduction in cell viability incubated for 48 hrs by MTT assay. Format: functional, cell-based. Particulars: DLD-1, 48 h. For orientation: Formazan colour is commonly taken as a measure of viable cells.
In data set [3] the test system is HCT-116. Briefly: cells. Conditions: Homo sapiens, HCT-116, 48 h.
In data set [4] the target is Poly [ADP-ribose] polymerase 2 (Homo sapiens, UniProt Q9UGN5). Briefly: Inhibition of human PARP-2 by ELISA. On the technique in general: ELISA stands for enzyme-linked immunosorbent assay.
Sequence of Poly [ADP-ribose] polymerase 2 (Q9UGN5 whole entry): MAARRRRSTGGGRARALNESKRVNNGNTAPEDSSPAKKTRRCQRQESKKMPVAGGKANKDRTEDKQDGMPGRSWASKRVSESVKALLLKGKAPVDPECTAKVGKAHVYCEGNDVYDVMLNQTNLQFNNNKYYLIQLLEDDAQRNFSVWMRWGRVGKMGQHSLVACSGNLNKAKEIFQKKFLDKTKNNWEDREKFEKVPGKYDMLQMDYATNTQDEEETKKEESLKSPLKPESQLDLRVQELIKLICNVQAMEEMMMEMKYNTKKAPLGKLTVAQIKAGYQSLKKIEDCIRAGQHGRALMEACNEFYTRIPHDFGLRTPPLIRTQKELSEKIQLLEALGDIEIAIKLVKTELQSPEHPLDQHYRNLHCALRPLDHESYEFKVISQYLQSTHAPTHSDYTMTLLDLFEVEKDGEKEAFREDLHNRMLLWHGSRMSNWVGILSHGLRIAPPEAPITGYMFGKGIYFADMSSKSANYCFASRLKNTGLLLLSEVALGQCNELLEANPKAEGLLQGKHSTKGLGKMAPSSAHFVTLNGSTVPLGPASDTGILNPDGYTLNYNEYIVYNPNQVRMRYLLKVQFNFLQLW
The target of data set [5] is Poly [ADP-ribose] polymerase 1 (Homo sapiens, UniProt P09874). Briefly: Inhibition of human PARP-1 by ELISA.
Sequence of Poly [ADP-ribose] polymerase 1 (P09874 whole entry): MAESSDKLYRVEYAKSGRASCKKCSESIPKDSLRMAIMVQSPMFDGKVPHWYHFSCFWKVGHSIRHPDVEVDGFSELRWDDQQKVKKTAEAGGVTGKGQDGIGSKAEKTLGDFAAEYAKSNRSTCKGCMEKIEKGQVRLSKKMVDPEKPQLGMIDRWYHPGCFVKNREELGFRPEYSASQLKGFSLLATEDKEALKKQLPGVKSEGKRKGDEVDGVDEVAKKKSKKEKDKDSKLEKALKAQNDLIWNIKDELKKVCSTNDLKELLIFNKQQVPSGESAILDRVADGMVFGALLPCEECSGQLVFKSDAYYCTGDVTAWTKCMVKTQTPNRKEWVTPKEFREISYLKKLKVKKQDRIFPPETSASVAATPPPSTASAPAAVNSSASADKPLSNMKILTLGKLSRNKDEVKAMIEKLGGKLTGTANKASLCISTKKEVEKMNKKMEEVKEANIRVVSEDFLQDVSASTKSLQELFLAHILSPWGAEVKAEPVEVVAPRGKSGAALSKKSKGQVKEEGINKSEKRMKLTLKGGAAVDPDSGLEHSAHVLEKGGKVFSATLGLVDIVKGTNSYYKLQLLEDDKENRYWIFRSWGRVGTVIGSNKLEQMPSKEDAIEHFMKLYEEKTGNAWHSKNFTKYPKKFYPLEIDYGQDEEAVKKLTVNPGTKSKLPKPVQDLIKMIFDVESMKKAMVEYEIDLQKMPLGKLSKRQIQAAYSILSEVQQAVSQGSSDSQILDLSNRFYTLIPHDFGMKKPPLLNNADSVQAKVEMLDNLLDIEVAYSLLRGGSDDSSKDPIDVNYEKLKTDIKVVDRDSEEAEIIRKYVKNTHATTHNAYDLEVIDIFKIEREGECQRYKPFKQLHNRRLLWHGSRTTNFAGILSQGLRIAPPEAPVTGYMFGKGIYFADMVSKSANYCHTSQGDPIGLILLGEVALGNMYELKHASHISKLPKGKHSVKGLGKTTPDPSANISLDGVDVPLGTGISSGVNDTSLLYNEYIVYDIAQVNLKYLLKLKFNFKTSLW
In data set [6] the test system is HCT-116. Description: Induction of mitochondrial membrane potential loss in human HCT-116 cells assessed as increase in monomer JC-1 level by measuring green fluorescence intensity at 15 uM incubated for 48 hrs by immunofluorescence analysis. The data set is classed as functional, cell-based.
The test system of data set [7] is HCT-116. Description: Induction of mitochondrial membrane potential loss in human HCT-116 cells assessed as JC-1 monomer level by measuring green fluorescence intensity at 15 uM incubated for 48 hrs by JC-1 staining based flow cytometry (reference value: 3.28%). Format: functional. Background: Flow cytometry measures light scatter and fluorescence of single cells or particles in a stream.

Data set [8] concerns HCT-116. Description: Induction of mitochondrial membrane potential loss in human HCT-116 cells assessed as JC-1 aggregate level by measuring red fluorescence intensity at 15 uM incubated for 48 hrs by JC-1 staining based flow cytometry (reference value: 96.72%). Format: functional.

Active and inactive are the calls of the source. No cut-off for these calls is given here. Some results are limits rather than exact numbers.

Description for SW480: Antiproliferative activity against human SW480 cells assessed as reduction in cell viability incubated for 48 hrs by MTT assay

Turning to `NC(=O)c1ccccc1NCc1cccc(NC(=O)Cc2ccc(Cl)cc2)c1`, the IC50 with SW480 was determined as 20.2 µM; in the data set on DLD-1, 7.86 µM; in the data set with HCT-116 [3], 15.7 µM. The selectivity ratio in [1] was 0.9. In data set [2], the IC50 at 48 h is 14 µM.
In the case of `NC(=O)c1ccccc1NCc1cccc(NC(=O)c2ccccc2Cl)c1`, the IC50 in the data set with SW480 was determined as 31.7 µM; in the data set with DLD-1, 9.14 µM; in the data set with HCT-116 [3] it was 37.8 µM. The selectivity ratio in data set [1] was 2.78. Moreover, the IC50 at 48 h in [2] amounted to 105 µM.
With `NC(=O)c1ccccc1OCc1cccc(NC(=O)Cc2ccccc2Cl)c1`, the values for the IC50 with SW480, in the data set with DLD-1 and in the data set with HCT-116 [3] were 12.7 µM, 18.7 µM and 22.1 µM, respectively. The selectivity ratio in data set [1] stood at 4.48. Further, in data set [2], the 50% inhibitory concentration (IC50) at 48 h turned out to be 98.7 µM.
As to `NC(=O)c1ccccc1OCc1cccc(NC(=O)c2ccc(Cl)cc2)c1`, the IC50 in data set [4] was 0.00436 µM; in data set [5] it was 0.00128 µM; in the data set with SW480, 33.3 µM; with DLD-1, 13 µM; in the data set on HCT-116 [3], 0.33 µM. Further, in data set [1], the selectivity ratio was 1020. Besides, the IC50 at 48 h in data set [2] stood at 340 µM.
For the compound `NC(=O)c1ccccc1NCc1cccc(NC(=O)Cc2ccccc2Cl)c1`, the IC50 with SW480 was determined as 10.7 µM; with DLD-1 it was 29.4 µM; in the data set with HCT-116 [3] it was 13.8 µM. Also, in data set [1], the selectivity ratio is 4.72. In addition, the concentration for half-maximal inhibition (IC50) at 48 h in data set [2] was 65 µM.
On to `NC(=O)c1ccccc1OCc1cccc(NC(=O)Nc2cccc(Br)c2)c1`, for which the IC50 is 25.1 µM in the data set with SW480, 13.2 µM in the data set on DLD-1 and 8.93 µM with HCT-116 [3]. Besides, in data set [1], the selectivity ratio amounted to 12.5. In addition, the IC50 at 48 h in data set [2] is 134 µM.
For the compound `NC(=O)c1ccccc1OCc1cccc(NC(=O)Cc2ccccc2Br)c1`, the IC50 in the data set with SW480 amounted to 8.11 µM; in the data set on DLD-1 it was 9.69 µM; with HCT-116 [3] it was 8.09 µM. Besides, in data set [1], the selectivity ratio was found to be 22.6. Also, the IC50 at 48 h in [2] was determined as 183 µM.
On the same counts, the results for `NC(=O)c1ccccc1NCc1cccc(NC(=O)Cc2cccc(Br)c2)c1` are 8.82 µM, 22.8 µM, 23.4 µM, 5.52 and 129 µM.
`NC(=O)c1ccccc1NCc1cccc(NC(=O)c2cccc(Cl)c2)c1`: the IC50 was determined as 62.4 µM in the data set with SW480, 45.4 µM in the data set with DLD-1 and 26.4 µM in the data set with HCT-116 [3]. Also, the selectivity ratio in data set [1] was 7.58. Besides, the 50% inhibitory concentration (IC50) at 48 h in data set [2] was found to be 200 µM.
`NC(=O)c1ccccc1OCc1cccc(NC(=O)Cc2cccc(Cl)c2)c1`: the IC50 with SW480 came out at 5.48 µM; in the data set on DLD-1, 22 µM; in the data set on HCT-116 [3], 7.38 µM. For the same compound, the selectivity ratio in [1] was found to be 9.79. For the same compound, in [2], the IC50 at 48 h is 72.2 µM.
As to `NC(=O)c1ccccc1NCc1cccc(NC(=O)c2cccc(Br)c2)c1`, the IC50 with SW480 is 5.08 µM; in the data set with DLD-1 it was 10 µM; in the data set with HCT-116 [3] it was 5.69 µM. In addition, the selectivity ratio in [1] was found to be 12.9. Also, in [2], the IC50 at 48 h came to 73.5 µM.
For `O=C(c1cc(Cc2n[nH]c(=O)c3ccccc23)ccc1F)N1CCN(C(=O)C2CC2)CC1` [OLAPARIB], the result in the data set with HCT-116 [6] was Active. Further, the half-maximal inhibitory concentration (IC50) in the data set with SW480 stood at 39.3 µM; in the data set with DLD-1 it was 13.7 µM; with HCT-116 [3], 26.4 µM. The Activity in the data set on HCT-116 [7] came to 16.33%; in the data set with HCT-116 [8], 83.67%. The IC50 at 48 h in data set [2] was 319 µM.
As to `NC(=O)c1ccccc1NCc1cccc(NC(=O)Cc2ccccc2Br)c1`, the figures for the half-inhibitory concentration (IC50) with SW480, with DLD-1 and with HCT-116 [3] were 14 µM, 11.7 µM and 20.7 µM, respectively. In addition, in data set [1], the selectivity ratio came to 3.35. Also, the IC50 at 48 h in data set [2] came out at 69.4 µM.
Regarding `NC(=O)c1ccccc1OCc1cccc(NC(=O)c2ccccc2Br)c1`, the half-inhibitory concentration (IC50) is 16.9 µM in the data set with SW480, 47 µM in the data set on DLD-1 and 60.1 µM in the data set on HCT-116 [3]. Besides, in data set [1], the selectivity ratio came to 2.68. Besides, the IC50 at 48 h in data set [2] is 161 µM.
Turning to `NC(=O)c1ccccc1OCc1cccc(NC(=O)c2cccc(Br)c2)c1`, the IC50 with SW480 is > 100 µM; with DLD-1 it was 64.9 µM; in the data set on HCT-116 [3], > 100 µM. The IC50 at 48 h in data set [2] worked out at 238 µM.
With `NC(=O)c1ccccc1OCc1cccc(NC(=O)c2cccc(Cl)c2)c1`, the IC50 in the data set with SW480 was > 100 µM; with DLD-1, 45.5 µM; in the data set on HCT-116 [3], 39.6 µM. Moreover, the selectivity ratio in [1] is 10.6. In addition, the IC50 at 48 h in [2] was 419 µM.
Turning to `NC(=O)c1ccccc1OCc1cccc(NC(=O)Cc2cccc(Br)c2)c1`, the IC50 was 16 µM in the data set with SW480, 14.9 µM in the data set on DLD-1 and 6.33 µM in the data set on HCT-116 [3]. Also, in data set [1], the selectivity ratio turned out to be 14.4. For the same compound, the IC50 at 48 h in data set [2] came to 91.2 µM.
`NC(=O)c1ccccc1NCc1cccc(NC(=O)c2ccc(Br)cc2)c1`: the IC50 was 37 µM in the data set with SW480, 44.5 µM in the data set on DLD-1 and 37.9 µM in the data set with HCT-116 [3]. In data set [1], the selectivity ratio was 1.59. The IC50 at 48 h in data set [2] amounted to 60.2 µM.
Turning to `NC(=O)c1ccccc1NCc1cccc(NC(=O)Nc2cccc(Br)c2)c1`, the IC50 turned out to be 19.8 µM with SW480, 7.7 µM with DLD-1 and 7.87 µM with HCT-116 [3]. Besides, the selectivity ratio in data set [1] came out at 17.9. Also, the IC50 at 48 h in [2] was determined as 154 µM.
As for `NC(=O)c1ccccc1NCc1cccc(NC(=O)c2ccc(Cl)cc2)c1`, the figures for the IC50 with SW480, in the data set with DLD-1 and in the data set with HCT-116 [3] were 61.1 µM, 11.8 µM and 45.2 µM, respectively. For the same compound, the selectivity ratio in data set [1] was 12.5. The IC50 at 48 h in [2] was 563 µM.
For the compound `NC(=O)c1ccccc1OCc1cccc(NC(=O)Cc2ccc(Br)cc2)c1`, the IC50 with SW480 was 30.8 µM; in the data set on DLD-1, 18.1 µM; in the data set on HCT-116 [3], 4.1 µM. Also, the selectivity ratio in data set [1] amounted to 19. For the same compound, the IC50 at 48 h in data set [2] amounted to 78 µM.
Consider `NC(=O)c1ccccc1NCc1cccc(NC(=O)Cc2cccc(Cl)c2)c1`, for which the IC50 in the data set with SW480 is > 100 µM; in the data set with DLD-1, 9.14 µM; with HCT-116 [3], 75.9 µM. Also, the selectivity ratio in data set [1] worked out at 1.02. In addition, the IC50 at 48 h in [2] was 77.2 µM.
For the compound `NC(=O)c1ccccc1OCc1cccc(NC(=O)c2ccccc2Cl)c1`, the values for the IC50 in the data set on SW480, with DLD-1 and with HCT-116 [3] were 11.6 µM, 36.4 µM and 35.3 µM, respectively. For the same compound, the selectivity ratio in data set [1] is 3.72. Further, in [2], the IC50 at 48 h amounted to 131 µM.
In the same order, the values of `NC(=O)c1ccccc1NCc1cccc(NC(=O)c2ccccc2Br)c1` are 17.2 µM, 35 µM, 22.9 µM, 2.88 and 65.8 µM.
`NC(=O)c1ccccc1OCc1cccc(NC(=O)Cc2ccc(Cl)cc2)c1`: the IC50 turned out to be 27.4 µM with SW480, 19.6 µM in the data set with DLD-1 and 5.86 µM with HCT-116 [3]. In [1], the selectivity ratio came to 48.8. The IC50 at 48 h in data set [2] turned out to be 286 µM.
Take `NC(=O)c1ccccc1NCc1cccc(NC(=O)Cc2ccc(Br)cc2)c1`: the IC50 is 8.71 µM with SW480, 14 µM with DLD-1 and 19.6 µM in the data set on HCT-116 [3]. Moreover, the selectivity ratio in data set [1] amounted to 2.62. The IC50 at 48 h in data set [2] turned out to be 51.3 µM.
